Data taken from PubChem BioAssay AID651779 (The Scripps Research Institute Molecular Screening Center, 2012).
The source made the active and inactive calls.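 How the source made its calls: active means cytotoxic to HEK293 cells with IC50 at or below 10 µM; inactive means IC50 above 10 µM.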

What follows are molecules tested on HEK293 viability, CellTiter-Glo ATP luminescence (assay: viability loss in HEK293 cells – cell-based, luminescence, dose response, cytotoxicity control for SRC3 inhibitor project, late-stage follow-up (AID 651779)).

Question: For COc1cc2c(cc1OC)C(NC(=O)C(F)(F)F)CNC2=O (stereo unspecified), which IC50 is on record?
Answer: 9.84 µM

Question: Which IC50 does the source give for O=C1CCC2S/C(=C/Nc3ccc(C(F)(F)F)cc3)C(=O)N12 (stereo unspecified) here?
Answer: > 35.9 µM (inactive)

Question: Which IC50 does the source give for Cc1ccc(/C=C2\SC(=S)N(CCCC(=O)NC3CCCC3)C2=O)cc1 here?
Answer: > 35.9 µM (inactive)

Question: With CC(C)N(c1ccccc1)c1ccc(NC(=O)CCl)cc1 as the molecule, how does the IC50 read?
Answer: 0.441 µM

Question: Which IC50 does the source give for Cc1ccc(/C=C2/SC(=S)N(CCCC(=O)Nc3ccc(O)cc3)C2=O)cc1 here?
Answer: > 35.9 µM (inactive)

Question: For CCC(=O)N1CCN(c2ccnc3cc(Cl)ccc23)CC1, which IC50 is on record?
Answer: > 35.9 µM (inactive)

Question: Which IC50 does the source give for NC(=S)NN=C1CCSc2ccc(Cl)cc21 here?
Answer: 31.4 µM (inactive)

Question: With O=[N+]([O-])c1nn(-c2ccc3c(c2)OCCO3)n(O)c1=Nc1ccc(Cl)cc1 as the molecule, how does the IC50 read?
Answer: > 35.9 µM (inactive)

Question: COC(=O)c1c(C)n(-c2ccc(OC)cc2)c2ccc(O)cc12 was tested. Which IC50 did it give?
Answer: > 35.9 µM (inactive)

Question: Which IC50 does the source give for CC(C)n1c(SCC(=O)Nc2nc3c(s2)CCCC3)nc2c1c(=O)n(C)c(=O)n2C here?
Answer: 33.6 µM (inactive)

Question: With CCc1ccc(/C=C2\SC(=S)N(CCCC(=O)NCCCN3CCOCC3)C2=O)cc1 as the molecule, how does the IC50 read?
Answer: 17.9 µM (inactive)

Question: With Cc1c(CC(=O)NCCCC(=O)O)c(=O)oc2cc3c(cc12)CCC(C)(C)O3 as the molecule, how does the IC50 read?
Answer: > 35.9 µM (inactive)

Question: Which IC50 does the source give for CCc1ccc(N=c2c([N+](=O)[O-])nn(-c3ccc4c(c3)OCCO4)n2O)cc1 here?
Answer: > 35.9 µM (inactive)

Question: For Cc1cc(N=c2c([N+](=O)[O-])nn(-c3ccc4c(c3)OCCO4)n2O)ccc1Br, which IC50 is on record?
Answer: > 35.9 µM (inactive)

Question: Cc1cc(/C=C2\Cc3ccccc3C2=O)c(C)n1-c1ccccc1 was tested. Which IC50 did it give?
Answer: > 35.9 µM (inactive)

Question: For O=C(Nc1nc(-c2ccccn2)cs1)c1cccc(S(=O)(=O)N2CCOCC2)c1, which IC50 is on record?
Answer: > 35.9 µM (inactive)

Question: For O=C(O)CN1C(=O)/C(=C\c2ccccc2OCc2ccc(Cl)cc2Cl)SC1=S, which IC50 is on record?
Answer: > 35.9 µM (inactive)

Question: Which IC50 does the source give for O=[N+]([O-])c1nn(-c2ccc3c(c2)OCCO3)n(O)c1=Nc1ccccc1 here?
Answer: > 35.9 µM (inactive)

Question: For COc1cc(C2c3cc4c(cc3C(OC3OC5COC(c6cccs6)OC5C(O)C3O)C3COC(=O)C23)OCO4)cc(OC)c1O (stereo unspecified), which IC50 is on record?
Answer: 24 µM (inactive)

Question: CC(=O)N1CCN(c2ncnc3ccccc23)CC1 was tested. Which IC50 did it give?
Answer: > 35.9 µM (inactive)

Question: How did the IC50 turn out when c1ccc(-c2nnc(-c3ccccn3)nc2NC2CCCCC2)cc1 was run?
Answer: > 35.9 µM (inactive)

Question: O=C(Nc1nc2ccccc2s1)C1c2ccccc2Oc2ccccc21 was tested. Which IC50 did it give?
Answer: > 35.9 µM (inactive)

Question: O=C(COC(=O)c1ccc[nH]c1=O)Nc1ccc(N2CCCCC2)cc1 was tested. Which IC50 did it give?
Answer: > 35.9 µM (inactive)

Question: CCOc1ccc(/C=C2\SC(=S)N(CCCC(=O)NCCCN3CCOCC3)C2=O)cc1 was tested. Which IC50 did it give?
Answer: > 35.9 µM (inactive)

Question: For O=C(CCl)N1N=C(c2ccco2)CC1c1cccs1 (stereo unspecified), which IC50 is on record?
Answer: 2.9 µM

Question: How did the IC50 turn out when NC(=O)c1sc2nc3c(c(-c4ccco4)c2c1N)CCC3 was run?
Answer: > 35.9 µM (inactive)

Question: For O=C(CCl)N1N=C(c2ccco2)CC1c1ccco1 (stereo unspecified), which IC50 is on record?
Answer: 5.77 µM

Question: How did the IC50 turn out when CCCCC(=O)Nc1cccn2ncnc12 was run?
Answer: > 35.9 µM (inactive)

Question: Which IC50 does the source give for Cc1ccc(N=c2c([N+](=O)[O-])nn(-c3ccc4c(c3)OCCO4)n2O)c(Cl)c1 here?
Answer: > 35.9 µM (inactive)

Question: With Cc1nn(CC(=O)N2CCN(c3cccc(C(F)(F)F)c3)CC2)c(=O)c2cccn12 as the molecule, how does the IC50 read?
Answer: > 35.9 µM (inactive)

Question: NS(=O)(=O)c1ccc(Nc2nc(-c3cccnc3)cs2)cc1 was tested. Which IC50 did it give?
Answer: > 35.9 µM (inactive)

Question: Which IC50 does the source give for O=C(Nc1cccnc1)c1ccc(C(=O)Nc2cccnc2)cc1 here?
Answer: > 35.9 µM (inactive)

Question: With Cc1ccc(N=c2c([N+](=O)[O-])nn(-c3ccc4c(c3)OCCO4)n2O)cc1F as the molecule, how does the IC50 read?
Answer: > 35.9 µM (inactive)

Question: How did the IC50 turn out when S=C(Nc1ccccc1)Nc1ccc(OCc2ccc(Cl)cc2Cl)cc1 was run?
Answer: > 35.9 µM (inactive)

Question: For CCOC(=O)C(=CNc1ccc(NC2=NCC(C)S2)cc1)C(=O)OCC (stereo unspecified), which IC50 is on record?
Answer: > 35.9 µM (inactive)

Question: With O=C(CCl)NC(Cc1ccccc1)c1ccccc1 (stereo unspecified) as the molecule, how does the IC50 read?
Answer: 22.3 µM (inactive)

Question: With CC(=O)/C(N=Nc1ccc2c(c1)OCCO2)=C(/C)O as the molecule, how does the IC50 read?
Answer: > 35.9 µM (inactive)

Question: For COc1ccc(/C=C2/SC(=S)N(CCC(=O)O)C2=O)cc1, which IC50 is on record?
Answer: > 35.9 µM (inactive)

Question: Cn1nc(C(F)(F)F)c(C#N)c1N1CCN(c2ccc(F)cc2)CC1 was tested. Which IC50 did it give?
Answer: 28.3 µM (inactive)

Question: For CN(C)c1ccc(CNC(=O)CCNS(=O)(=O)c2cc(Br)cnc2N)cc1, which IC50 is on record?
Answer: > 35.9 µM (inactive)

Question: With Cc1ccc(OCC(=O)c2cc(C)n(Cc3cccs3)c2C)c([N+](=O)[O-])n1 as the molecule, how does the IC50 read?
Answer: > 35.9 µM (inactive)

Question: Which IC50 does the source give for S=C(c1ccc(-c2ccccc2)cc1)N1CCOCC1 here?
Answer: > 35.9 µM (inactive)

Question: Which IC50 does the source give for O=C(CCCc1nc(-c2ccccc2Cl)no1)NC1CCCC1 here?
Answer: > 35.9 µM (inactive)

Question: Cc1c(Cl)cccc1N=c1c([N+](=O)[O-])nn(-c2ccc3c(c2)OCCO3)n1O was tested. Which IC50 did it give?
Answer: > 35.9 µM (inactive)

Question: With Cc1cccc(NC(=O)c2cc(Cl)ccc2[N+](=O)[O-])c1 as the molecule, how does the IC50 read?
Answer: > 35.9 µM (inactive)

Question: How did the IC50 turn out when O=[N+]([O-])c1cccc2c1ccc1ncccc12 was run?
Answer: > 35.9 µM (inactive)

Question: Which IC50 does the source give for Cc1cc(C)cc(N=c2c([N+](=O)[O-])nn(-c3ccc4c(c3)OCCO4)n2O)c1 here?
Answer: > 35.9 µM (inactive)

Question: How did the IC50 turn out when Cc1c(/C(O)=C2/C(=O)C(=O)N(Cc3cccnc3)C2c2ccccn2)cnn1-c1ccccc1 (stereo unspecified) was run?
Answer: > 35.9 µM (inactive)

Question: For O=C(NC(NC(=S)N1CCOCC1)C(Cl)(Cl)Cl)c1ccc(Cl)cc1 (stereo unspecified), which IC50 is on record?
Answer: > 35.9 µM (inactive)

Question: How did the IC50 turn out when Cc1ccc(OCC(=O)c2cc(C)n(-c3ccccc3)c2C)c([N+](=O)[O-])n1 was run?
Answer: > 35.9 µM (inactive)

Question: How did the IC50 turn out when COc1cc(N=c2c([N+](=O)[O-])nn(-c3ccc4c(c3)OCCO4)n2O)cc(OC)c1 was run?
Answer: 25.6 µM (inactive)
